# Measurements published in patent publication US4352928A, “5,6-Alkylenepyrimidine derivative” (Mitsubishi Yuka Pharmaceutical Co., Ltd., priority 1979, dated 1982).
# Read-outs that look alike come from different tables or passages of the source.
# Columns and labels:
# [1] = tested on: blood pressure; assay: Anti-Hypertensive Effect (spontaneously hipertensive rat); format: in vivo, male; settings: SHR
# Procedure: To a spontaneously hipertensive rat (SHR), male, aged 20-30 weeks, blood pressure under contraction 150 mmHg. was orally administered the test sample. The mean blood pressure of the rat was measured under non-anesthetic conditions at 1, 3, 6 and 24 hours after the administration via cannula inserted into the main artery in the abdomen.
# [2] = tested on: inflammation; assay: Anti-Inflammatory Effect (carrageenan-induced swelling of the hind foot); format: in vivo, Wister male rat; settings: po, rat, 3 hours after carrageenan, read-out: Suppressive Ratio; for inhibition in vivo at 50 mg/kg: 50 mg/kg p.o.
# Procedure: A Wister male rat having the weight ranging from 120 to 150 g. was starved for 18 hours, and to this was then orally administered the test sample. After lapse of one hour, 0.05 ml. of 1% solution of carrageenan was administered through subcutaneous injection in the plantar surface of the right hind foot to produce inflammation. The volume of the right hind foot was measured prior to the injection of carrageenan and again at 3 hours after the administration through injection. The ratio of the increase of the foot volume was calculated to express in percent based on the measured values. The so calculated ratio was compared with the calculated ratio on the control data to give the dropsical swelling suppressive ratio.
# [3] = tested on: blood sugar level; assay: Blood Sugar Level Lowering Effect (2-deoxy-D-glucose induced high blood sugar level); format: in vivo, ICR-JCL mouse, male; settings: po, mouse, 1 hour after 2-deoxy-D-glucose 500 mg/kg, read-out: Suppressive Ratio; for inhibition in vivo at 30 mg/kg: 30 mg/kg p.o.
# Procedure: To a ICR-JCL mouse, male, having the weight ranging from 25 to 30 g. was orally administered the test sample and, after 15 minutes, 2-deoxy-D-glucose was administered into the cavity of the mouse in the amount of 500 mg/kg to induce a high blood sugar level. The blood was taken after 1 hour, and the blood sugar concentration was determined in the blood serum obtained upon centrifugation, by means of a commercially available test kit (trade name: Glucomesser, produced by Tokyo Zooki Kagaku Co., Ltd., Japan). The suppressive ratio was calculated based on the following equation. [formula] A: Blood sugar level of the positive control group B: Blood sugar level of the negative control group
# C: Blood sugar level of the test sample administered group
# [4] = tested on: Blood Platelet Aggregation; assay: Blood Platelet Aggregation Suppressive Effect (collagen-induced, platelet rich plasma); format: cell-based, rabbit; settings: Oryctolagus cuniculus, 2 min, read-out: Suppressive Ratio
# Procedure: A rabbit was starved for 18 hours, and the veinal blood was taken from the carotid artery of the rabbit. […] The mixture was centrifuged at 200 G for 15 minutes to collect the platelet rich plasma (PRP). The residual portion was further centrifuged at 2000 G for 15 minutes to collect the platelet poor plasma (PPP). Subsequently, 250 μl. of the PRP was placed in a cuvette, and the methanol solution containing the test sample of the concentration set forth in Table 4 was added. Incubation was carried out for 2 minutes, and a collagen solution was added to the incubated solution to result in the final concentration of 3 μg./ml. so as to induce aggregation. The condition of the aggregation was measured in the Aggregation Meter (available from Shenco Co., Ltd.) and recorded.
# The suppressive ratio was calculated based on the following equation. [formula] A: Maximum aggregation ratio observed when a solvent only was added. B: Maximum aggregation ratio observed when the test sample was added.
# [5] = tested on: ICR-JCL mouse; assay: Acute Toxicity on Mouse; design: species or system male; settings: in vivo, po
# Procedure: A ICR-JCL mouse, male, was starved for 18 hours, and to the mouse was orally administered the test sample suspended in 1% tragacantha solution. The condition was observed during one week after the administration and the LD50 was calculated.
# [6] = Biochem. & Biophys. Res. Commu., 34, 495 (1969); cited from earlier work
# [7] = Japanese Patent Provisional Publication No. 35-12079/1960; cited from earlier work
# [8] = Japanese Patent Provisional Publication No. 35-12079/1960; cited from earlier work; remark: listed apart in the source
# [9] = 100 μM, rabbit PRP, collagen 3 μg/ml
smiles,measurement,setting,value
"Nc1nc(N2CCN(C(=O)C=Cc3ccccc3[N+](=O)[O-])CC2)nc2c1CCCC2 [compound 11, 2-[4-(2-Nitrocinnamoyl)piperazino]-4-amino-5,6-tetramethylenepyrimidine]",Change of Blood Pressure at 3 Hours after Administration,[1]; 50 mg/kg p.o.,-17 mmHg.
"Nc1nc(N2CCN(C(=O)Nc3ccccc3)CC2)nc2c1CCCC2 [Compound No. 18, 2-(4-Phenylcarbamoylpiperazino)-4-amino-5,6-tetramethylenepyrimidine]",inhibition in vivo at 50 mg/kg,[2],33.8%
same,Change of Blood Pressure at 3 Hours after Administration,[1]; 50 mg/kg p.o.,-17 mmHg.
"Nc1nc(N2CCNCC2)nc2c1CCC2 [Compound No. 54, 2-Piperazino-4-amino-5,6-trimethylenepyrimidine]",inhibition in vivo at 30 mg/kg,[3],107%
"C1CCc2c(nc(N3CCNCC3)nc2N2CCCC2)C1 [compound 45, 2-Piperazino-4-pyrrolidino-5,6-tetramethylenepyrimidine]",inhibition at 30 µM,"[4]; rabbit PRP, collagen 3 μg/ml",72%
"O=CN1CCN(c2nc3c(c(N4CCOCC4)n2)CCCC3)CC1 [compound 47, 2-(4-Formylpiperazino)-4-morpholino-5,6-tetramethylenepyrimidine]",inhibition at 30 µM,"[4]; rabbit PRP, collagen 3 μg/ml",100%
"Nc1nc(N2CCN(C(=O)C=Cc3ccco3)CC2)nc2c1CCCC2 [Compound No. 14, 2-[4-{3-(Furan-2-yl)acryloyl}piperazino]-4-amino-5,6-tetramethylenepyrimidine]",inhibition in vivo at 30 mg/kg,[3],60.2%
same,inhibition in vivo at 25 mg/kg,[2]; 25 mg/kg p.o.,53.9%
"Nc1nc(N2CCN(Cc3ccccc3)CC2)nc2c1CCCC2 [Compound No. 3, 2-(4-Benzylpiperazino)-4-amino-5,6-tetramethylenepyrimidine]",inhibition in vivo at 50 mg/kg,[2],46%
"C=CCN1CCN(c2nc(N)c3c(n2)CCCC3)CC1 [Compound No. 4, 2-(4-Allylpiperazino)-4-amino-5,6-tetramethylenepyrimidine]",inhibition in vivo at 50 mg/kg,[2],51.2%
"Nc1nc(N2CCN(c3ccc(Cl)cc3)CC2)nc2c1CCCC2 [compound 29, 2-[4-(4-Chlorophenyl)piperazino]-4-amino-5,6-tetramethylenepyrimidine]",inhibition in vivo at 10 mg/kg,[3]; 10 mg/kg p.o.,49.1%
same,inhibition in vivo at 50 mg/kg,[2],46.8%
"Nc1nc(N2CCN(Cc3ccccc3)CC2)nc2c1CCC2 [Compound No. 56, 2-(4-Benzylpiperazino)-4-amino-5,6-trimethylenepyrimidine]",inhibition in vivo at 30 mg/kg,[3],44.5%
"Nc1nc(N2CCN(C(=S)Nc3ccccc3)CC2)nc2c1CCCC2 [compound 23, 2-(Phenylthiocarbamoylpiperazino)-4-amino-5,6-tetramethylenepyrimidine]",inhibition in vivo at 50 mg/kg,[2],23.9%
"Nc1nc(N2CCN(C(=O)C=Cc3ccccc3)CC2)nc2c1CCCC2 [Compound No. 10, 2-(4-Cinnamoylpiperazino)-4-amino-5,6-tetramethylenepyrimidine]",inhibition in vivo at 50 mg/kg,[2],79.9%
same,Change of Blood Pressure at 3 Hours after Administration,[1]; 25 mg/kg p.o.,-22 mmHg.
"Nc1nc(N2CCNCC2)nc2c1CCCCC2 [Compound No. 63, 2-Piperazino-4-amino-5,6-pentamethylenepyrimidine]",inhibition in vivo at 30 mg/kg,[3],78.9%
"CN1CCN(c2nc3c(c(N4CCOCC4)n2)CCCC3)CC1 [compound 49, 2-(4-Methylpiperazino)-4-morpholino-5,6-tetramethylenepyrimidine]",LD50,[5],> 500 mg/kg
same,inhibition at 30 µM,"[4]; rabbit PRP, collagen 3 μg/ml",95.2%
"Nc1nc(N2CCN(c3ccccn3)CC2)nc2c1CCCC2 [Compound No. 32, 2-[4-(2-Pyridyl)piperazino]-4-amino-5,6-tetramethylenepyrimidine]",inhibition in vivo at 30 mg/kg,[3],60.1%
same,Change of Blood Pressure at 3 Hours after Administration,[1]; 50 mg/kg p.o.,-18 mmHg.
"Nc1nc(N)c2c(n1)CCCC2 [2,4-diamino-5,6-tetramethylenepyrimidine]",antagonism against pteridine,[6],has antagonism against pteridine
same,carcinostatic effect,[7],has a carcinostatic effect
same,antibacterial activity,[8],antibacterial activity
"CN(C)c1nc(N2CCNCC2)nc2c1CCCC2 [compound 41, 2-Piperazino-4-dimethylamino-5,6-tetramethylenepyrimidine]",inhibition in vivo at 30 mg/kg,[3],50.8%
"CNc1nc(N2CCNCC2)nc2c1CCCC2 [Compound No. 35, 2-Piperazino-4-methylamino-5,6-tetramethylenepyrimidine]",inhibition in vivo at 30 mg/kg,[3],77.4%
same,inhibition at 100 µM,[4]; [9],87.7%
"OCCNc1nc(N2CCNCC2)nc2c1CCCC2 [compound 51, 2-Piperazino-4-(2-hydroxyethyl)amino-5,6-tetramethylenepyrimidine]",inhibition at 100 µM,[4]; [9],89.1%
"Nc1nc(N2CCN(c3ccccc3)CC2)nc2c1CCCC2 [compound 28, 2-(4-Phenylpiperazino)-4-amino-5,6-tetramethylenepyrimidine]",inhibition in vivo at 50 mg/kg,[2],52.7%
"CC(=O)Oc1ccccc1C(=O)O [Aspirin, reference compound]",inhibition at 100 µM,[4],100%
"Nc1nc(N2CCNCC2)nc2c1CCCC2 [Compound No. 1, 2-Piperazino-4-amino-5,6-tetramethylenepyrimidine]",inhibition in vivo at 30 mg/kg,[3],67.8%
same,inhibition at 100 µM,[4]; [9],100%
"CN1CCN(c2nc3c(c(N4CCCC4)n2)CCCC3)CC1 [compound 46, 2-(4-Methylpiperazino)-4-pyrrolidino-5,6-tetramethylenepyrimidine]",inhibition at 30 µM,"[4]; rabbit PRP, collagen 3 μg/ml",100%
"C1CCc2c(nc(N3CCNCC3)nc2N2CCOCC2)C1 [compound 48, 2-Piperazino-4-morpholino-5,6-tetramethylenepyrimidine]",inhibition in vivo at 30 mg/kg,[3],95.9%
same,inhibition at 30 µM,"[4]; rabbit PRP, collagen 3 μg/ml",46%
